Source: PMC11589101, “Profiling the endocrine-disrupting properties of triazines, triazoles, and short-chain PFAS” (Toxicological Sciences, 2024)

Legend:
[1] = system: steroidogenesis in H295R cells; assay type: cell-based, human; conditions: 48 h; for effect on steroid hormone levels compared with vehicle-treated controls: highest noncytotoxic exposure concentration
Procedure: All experiments were performed using cells in passages 5 to 10. First, the highest noncytotoxic concentration (<10% decrease in viability) was determined for each compound with MTT assays. Next, the levels of 13 steroid hormones were determined in the medium after exposure of the H295R cells to the highest noncytotoxic concentration using LC-MS/MS. These concentrations were tested in triplicate (n = 3) in 3 independent experiments (N = 3), and all 9 samples were measured in LC-MS/MS. […] These dilution series were tested in 3 independent experiments (N = 3), with triplicate exposures in each of these experiments (n = 3). Supernatants of the triplicate exposures per experiment were pooled after the 48 h of exposure and the 3 pooled samples were measured with LC-MS/MS. This was done to keep the number of LC-MS/MS measurements manageable.
The exposure medium was prepared by diluting stock solutions 1,000× in the cell culture medium to obtain a final concentration of 0.1% of the solvent. Exposure was started by replacing cell culture medium with the exposure medium. […] On a separate quality control plate, cells were exposed to 10 μM forskolin (Sigma-Aldrich) and 1 μM prochloraz (Sigma-Aldrich) to serve as positive control for increased and decreased steroid hormone secretion, respectively. Exposure was started by replacing the culture medium in the cell culture plates with the exposure medium.
After 48 h of exposure, the supernatant medium from each well was transferred to the wells of a clean 48-well plate, and that plate was stored at −80 °C for later steroid measurement. MTT assays were performed by adding 500 μl of 0.5 mg/ml MTT (3-(4,5-dimethylthiazol-2-yl)-2,5-diphenyltetrazolium bromide; Sigma-Aldrich) solution in medium to each well of the 24-well cell culture plate and incubating for 1 h at 37 °C with 5% CO2. After incubation, the MTT solution was discarded and 500 μl of DMSO was added to each well to lyse the cells and dissolve the formazan crystals. Plates were shaken at 700 rpm for 10 min and absorbance was measured at 560 nm wavelength.
Hormones were concentrated from supernatants by solid phase extraction using Bond Elut Plexa cartridges, 30 mg sorbent, 1.8 ml (Agilent Technologies, Santa Clara, CA, United States). The cartridges were conditioned with 1 ml of 0.5% formic acid in methanol, and subsequent addition of 1 ml of 0.5% formic acid in water. A mix of 100 μl of H295R medium sample in 1 ml of 2% formic acid in water and 50 μl of isotopically labeled internal standards mix (Table S1) was loaded on the cartridges. These were then washed with 1 ml of water followed by 1 ml of water–methanol mixture (70:30, v/v). Cartridges were dried by vacuum and the hormones were eluted with 700 μl of methanol into 96-well-deep well polypropylene plates. Eluates were evaporated to dryness during approximately 2 h in a refrigerated CentriVap vacuum concentrator and reconstituted in 150 μl of water–methanol mixture (1:1, v/v). Additionally, a serial 12-point dilution series of a mix of native steroid hormones was prepared to fit a calibration curve in order to quantify steroid concentrations.
The steroid hormones were separated prior to MS measurements on a Kinetex C18 LC Column (2.6 μm, 100 × 2.1 mm; Phenomenex, CA, United States) coupled to an Exion LC system (SCIEX, Framingham, MA, United States). The mobile phase consisted of 0.2 mM NH4F in water and pure methanol and was delivered at a flow rate of 0.6 ml/min in a gradient elution mode. The injection volume was 10 μl.
The LC-MS/MS raw data were processed using AB Sciex OS Analyst version 1.6.2 (SCIEX, Framingham, MA, United States) to calculate fold changes by dividing the measured hormone concentrations by the hormone concentrations in the vehicle controls. The fold changes were used to fit a concentration–response curve in GraphPad Prism using the same model as in the reporter gene assays, and the ECIR1.5 was estimated for each compound.

[2] = target: T1, human transthyretin (TTR) (Homo sapiens, UniProt P02766); assay: FITC-T4 TTR-binding assay, initial (original) method
Procedure: (§1) All incubations were performed at room temperature.
(§2) Fluorescence enhancement was determined for each well by subtracting its relative fluorescence units (RFU) before TTR addition from its RFUs after TTR addition. The resulting values were normalized to percentages of the vehicle control. A concentration–response curve was fitted through the data using the same model as in the reporter gene assays.
After 15 min of incubation, fluorescence was measured and fluorescence enhancement was calculated by subtracting RFU without TTR from RFU with TTR. Further data analysis was similar to the screening assays.

[3] = target: T1, human transthyretin (TTR); assay: FITC-T4 TTR-binding assay, screening method
Procedure: as §1
In the screening tests, 48 μl of Tris-HCl buffer (pH 8.0) was added to each well of black low-binding 96-well plates. Two microliters of each test compound dissolved in their respective solvent was added to each well and the plate was shaken at 600 rpm for 5 min. […] Fluorescence was measured again to check for possible autofluorescence or quenching by the test compound.
as §2

[4] = initial method, 110 nM FITC-T4, 30 nM TTR
[5] = initial method, 110 nM FITC-T4, 30 nM TTR, read-out: IC50 competing with FITC-T4 for binding to TTR
[6] = screening method, read-out: IC50 TTR-binding assay, Screening Method

Structure (SMILES)	effect on steroid hormone levels compared with vehicle-treated controls [1]	% FITCT4 bound to TTR ([2]; 0.1 uM) [%]	% FITCT4 bound to TTR ([2]; 0.3 uM) [%]	% FITCT4 bound to TTR ([2]; 1 uM) [%]	% FITCT4 bound to TTR ([2]; 3 uM) [%]	% FITCT4 bound to TTR ([2]; 10 uM) [%]	% FITCT4 bound to TTR ([2]; 30 uM) [%]	% FITCT4 bound to TTR ([2]; 100 uM) [%]	IC10 competing with FITC-T4 for binding to TTR [2, 4] [nM]	IC50 [2, 5] [nM]	IC50 [3, 6] [nM]	increased levels of progesterone and 17α-OH-progesterone compared with vehicle-treated controls ([1]; H295R)	IC50 [2] [nM]	IC50 [3] [nM]
CC(C)Nc1nc(N)nc(Cl)n1 [Deethyl-atrazine]	increased levels of progestogens, androgens, estrogens, and corticosteroids	–	–	–	–	–	–	–	–	–	–	–	–	–
Cc1cccc2[nH]nnc12 [4-methylbenzotriazole, 4-Methylbenzotriazole]	–	96.4305	93.5915	89.9761	82.6096	67.1205	47.648	21.2593	1300	23300	26300	–	–	–
O=C(O)C(F)(F)C(F)(F)C(F)(F)C(F)(F)C(F)(F)F [PFHxA, Perfluorohexanoic acid]	–	90.7115	81.4177	77.1918	44.5805	21.8899	12.6684	2.971	200	2600	2500	–	–	–
CC(C)(C)[C@@H](O)[C@@H](Cc1ccc(Cl)cc1)n1cncn1 (racemic) [Paclobutrazol]	increased levels of progesterone and decreased levels of androgens, estrogens, and corticosteroids	–	–	–	–	–	–	–	–	–	–	up to 3.5 fold	–	–
O=S(=O)(O)C(F)(F)C(F)(F)C(F)(F)C(F)(F)C(F)(F)C(F)(F)F [PFHxS, Perfluorohexane sulfonic acid]	–	74.2951	47.4669	17.2866	8.444	4.647	2.41	0.6647	34	–	–	–	270	240
O=S(=O)(O)C(F)(F)C(F)(F)C(F)(F)C(F)(F)C(F)(F)C(F)(F)C(F)(F)C(F)(F)F [PFOS, Perfluorooctane sulfonic acid]	–	75.2122	36.6572	10.1163	2.093	0.8236	1.548	-1.121	47	210	190	–	–	–
